Data set [1] has as its system P-gp. The data set is described as follows: PET imaging of [^11C]dLop in monkey brain, baseline and P-gp blocked with DCPQ. The conditions noted are these: for increase of regional radioactivity concentration relative to baseline: DCPQ 16 mg/kg i.v. before [^11C]dLop, averaged 25-50 min. The protocol:
Scatter and attenuation correction were applied. Images were analyzed with PMOD. Regions of interest were drawn on coronal slices for eight brain regions (frontal cortex, anterior cingulate, temporal cortex, parietal cortex, hippocampus, occipital cortex, putamen and cerebellum). Activity was decay-corrected to the time of injection and expressed as % SUV. […]
Time-radioactivity data were collected for the same eight brain regions as previously described.

Data set [2] concerns P-gp. The conditions noted are these: Ekins et al. 2002 (DCPQ); Martin et al. 1999 (tariquidar); cited from earlier work.
Data set [3] has as its system P-gp. The conditions noted are these: DCPQ 16 mg/kg i.v., monkeys. The protocol:
The brains of three P-gp KO and three WT mice were scanned for 90 min after administration of [^11C]dLop (˜580 μCi, i.v.). Mice injected with [^11C]dLop (600 μCi, i.v.) were also sacrificed at 30 min, and acetonitrile extracts of blood and brain analyzed with reverse phase HPLC.

Data set [4] in a line: Plasma analysis of [^11C]loperamide in nonhuman primates (arterial plasma, radio-HPLC). The conditions noted are these: for time at which parent radiotracer was 50% of total plasma activity: monkey arterial plasma. From the text: (§1) For tariquidar only a blockade scan was acquired and compared to the baseline scans of three other animals.
A short description of data set [5]: Plasma free fraction (fP) by ultracentrifugation. It counts as in vitro ADME. The settings on record: fP of [^11C]loperamide, monkey.
Data set [6] has as its system P-gp. The data set is described as follows: PET imaging of [^11C]loperamide in monkey brain with P-gp inhibitors. The conditions noted are these: for increase of brain activity after [^11C]loperamide: monkey; for increase of peak radioactivity in brain after [^11C]loperamide: inhibitor 8.0 mg/kg i.v. 30 min before radiotracer, monkey (FIG. 3). The protocol: as §1
PET images were co-registered to a magnetic resonance image template of a monkey brain. Tomographic images were analyzed with PMOD 2.7 (pixel-wise modeling computer software; PMOD Group, Adliswil, Switzerland). Regions of interest were drawn on coronal slices. Decay-corrected radioactivity was expressed as % standardized uptake value (% SUV), which normalizes for injected activity and body weight. % SUV=(% injected activity per cm3 brain)×(g body weight).

The test system of data set [7] is P-gp. The data set is described as follows: P-gp function imaged with [^11C]dLop in monkeys, brain study. The settings on record: naloxone 5 mg/kg or loperamide 1 mg/kg at 30 min after [^11C]dLop, P-gp blocked monkeys. The format is in vivo. The protocol:
Displacement agents were given at 30 min after the radiotracer. A subset of monkeys also had arterial blood sampling (n=5) and [^15O]H2O PET scans (n=4) to measure the concentration of parent radiotracer in plasma and cerebral blood flow, respectively.

Data set [8] relates to P-gp. The conditions noted are these: KO mice, 30 min after [^11C]loperamide i.v. An excerpt:
(§2) The most lipophilic radiometabolite was identified by radio-HPLC co-elution as N-desmethylloperamide (dLop) (data not shown).

Data set [9] concerns P-gp. The settings on record: iv, 8 mg/kg.
Data set [10] can be described thus: Arterial plasma parent input function and plasma free fraction, [^11C]loperamide with tariquidar. It counts as in vivo. The settings on record: monkey.
Experimental: Arterial plasma parent input function and plasma free fraction (fl) were determined in monkey.
Data set [11] relates to P-gp. The data set is described as follows: Monkey brain PET with [^11C]loperamide, baseline and tariquidar (additional experiments).
For data set [12], the system named is P-gp.
Experimental: Serial dynamic images were acquired for 100 min, with frames of 6×20 s, 5×1 min, 4×2 min, 3×5 min, 3×10 min, and 2×20 min. […] The small mouse brain causes little scatter and attenuation of the gamma emissions from carbon-11, and, thus, no correction for scatter or attenuation was performed.
Data set [13] has as its system P-gp. The conditions noted are these: P-gp knockout mice, 30 min after injection of [^11C]loperamide. As for the experimental part:
At 30 min after radiotracer injection, anticoagulated blood was removed by cardiac puncture, and the brain was harvested. Plasma was separated from whole blood by centrifugation at 1,800 g for 1 min. […] The homogenates were measured in the y-counter to calculate the % recovery of radioactivity into the acetonitrile extracts. The homogenates were then centrifuged at 10,000×g for 1 min. […] The eluate was monitored with an in-line flow-through Na(Tl) scintillation detector (Bioscan, Washington D.C., USA). Plasma parent and radiometabolite concentrations were calculated as the product of the radio-HPLC fraction of interest and the total plasma radioactivity concentration (dpm/mL).

The next data set deals with κ opiate receptor (Homo sapiens, UniProt P41145). The data set is described as follows: biochemical. The settings on record: agonist radiotracer ^3H-U69,593; mean ± SD of four competitive binding experiments. An excerpt:
(§3) Detailed binding protocols are available on the web site for The National Institute of Mental Health Psychoactive Drug Screening Program.

The next data set concerns the target δ opiate receptor (Homo sapiens, UniProt P41143). The data set is described as follows: In vitro receptor binding, cloned human δ opiate receptor.
Excerpt: as §3

Data set [14] concerns the target P-gp (Mus musculus, UniProt P21447). The conditions noted are these: 30 min after [^11C]loperamide i.v.
Excerpt: as §2

The next data set concerns the target μ opiate receptor (Homo sapiens, UniProt P35372). The format is binding.
Excerpt: as §3

A further data set deals with CYP3A4. The conditions noted are these: mouse, in vivo. The protocol: Ex vivo studies were performed in wild-type (WT) and P-gp knockout (KO) mice. […] Whole brain and plasma sample radioactivity were measured with γ-counting and HPLC analysis.
Where [15] appears, read: inhibitor 8 mg/kg i.v. 30 min before radiotracer.

Counter-ions that a name gives are not always drawn.

Sequence of P-gp (Mus musculus, UniProt P21447) (P21447 whole entry): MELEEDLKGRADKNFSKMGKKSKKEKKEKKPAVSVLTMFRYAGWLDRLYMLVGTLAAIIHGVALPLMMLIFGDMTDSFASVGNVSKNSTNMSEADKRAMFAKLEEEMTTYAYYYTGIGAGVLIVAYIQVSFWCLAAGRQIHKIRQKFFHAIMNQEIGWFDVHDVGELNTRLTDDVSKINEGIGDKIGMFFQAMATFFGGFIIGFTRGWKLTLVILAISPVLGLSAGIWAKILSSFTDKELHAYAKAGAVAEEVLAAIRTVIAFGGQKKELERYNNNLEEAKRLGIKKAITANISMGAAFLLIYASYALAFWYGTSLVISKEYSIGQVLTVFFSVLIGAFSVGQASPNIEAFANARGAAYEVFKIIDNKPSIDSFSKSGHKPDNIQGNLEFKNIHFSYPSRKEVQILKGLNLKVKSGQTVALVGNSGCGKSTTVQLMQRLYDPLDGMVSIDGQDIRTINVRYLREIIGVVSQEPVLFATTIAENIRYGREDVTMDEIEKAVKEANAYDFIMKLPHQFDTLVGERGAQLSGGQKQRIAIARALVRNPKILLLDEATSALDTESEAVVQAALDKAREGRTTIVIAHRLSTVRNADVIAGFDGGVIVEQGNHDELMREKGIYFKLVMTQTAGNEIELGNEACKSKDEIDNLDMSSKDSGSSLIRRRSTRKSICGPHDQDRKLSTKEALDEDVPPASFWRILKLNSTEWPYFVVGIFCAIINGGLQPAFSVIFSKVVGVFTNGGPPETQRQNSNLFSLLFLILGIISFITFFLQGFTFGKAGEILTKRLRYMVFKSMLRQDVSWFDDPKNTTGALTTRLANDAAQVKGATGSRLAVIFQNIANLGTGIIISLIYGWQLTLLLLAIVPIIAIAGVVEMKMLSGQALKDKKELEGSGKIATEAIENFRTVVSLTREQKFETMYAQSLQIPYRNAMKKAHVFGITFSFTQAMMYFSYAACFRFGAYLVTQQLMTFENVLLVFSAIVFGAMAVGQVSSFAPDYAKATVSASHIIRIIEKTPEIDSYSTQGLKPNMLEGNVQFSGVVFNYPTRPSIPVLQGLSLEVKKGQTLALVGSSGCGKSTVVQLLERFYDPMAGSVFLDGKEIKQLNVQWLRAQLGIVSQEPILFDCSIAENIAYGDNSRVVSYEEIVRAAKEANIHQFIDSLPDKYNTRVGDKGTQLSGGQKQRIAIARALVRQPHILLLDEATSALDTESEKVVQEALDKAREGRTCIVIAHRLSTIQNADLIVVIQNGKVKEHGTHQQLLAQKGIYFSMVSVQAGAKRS
Sequence of δ opiate receptor (P41143 whole entry): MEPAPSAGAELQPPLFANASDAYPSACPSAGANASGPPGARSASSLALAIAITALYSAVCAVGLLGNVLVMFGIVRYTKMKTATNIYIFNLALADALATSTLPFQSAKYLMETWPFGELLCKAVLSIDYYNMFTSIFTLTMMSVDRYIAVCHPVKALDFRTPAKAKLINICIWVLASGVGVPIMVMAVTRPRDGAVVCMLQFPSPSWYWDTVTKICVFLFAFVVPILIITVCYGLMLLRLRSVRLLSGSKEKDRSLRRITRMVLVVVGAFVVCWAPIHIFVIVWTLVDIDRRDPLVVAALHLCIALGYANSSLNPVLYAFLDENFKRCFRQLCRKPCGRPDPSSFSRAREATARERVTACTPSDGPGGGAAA
Sequence of μ opiate receptor (P35372 whole entry): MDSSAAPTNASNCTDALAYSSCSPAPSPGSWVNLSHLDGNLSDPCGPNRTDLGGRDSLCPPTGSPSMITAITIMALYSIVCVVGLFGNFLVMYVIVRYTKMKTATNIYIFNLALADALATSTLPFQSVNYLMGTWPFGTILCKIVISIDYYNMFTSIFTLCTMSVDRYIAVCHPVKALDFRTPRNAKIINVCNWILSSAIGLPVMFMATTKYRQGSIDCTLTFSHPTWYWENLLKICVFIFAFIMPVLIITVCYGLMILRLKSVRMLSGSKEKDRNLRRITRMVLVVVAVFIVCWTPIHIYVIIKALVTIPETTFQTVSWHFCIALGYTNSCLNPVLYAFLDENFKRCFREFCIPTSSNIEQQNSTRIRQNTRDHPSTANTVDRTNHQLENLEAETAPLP
Sequence of κ opiate receptor (P41145 whole entry): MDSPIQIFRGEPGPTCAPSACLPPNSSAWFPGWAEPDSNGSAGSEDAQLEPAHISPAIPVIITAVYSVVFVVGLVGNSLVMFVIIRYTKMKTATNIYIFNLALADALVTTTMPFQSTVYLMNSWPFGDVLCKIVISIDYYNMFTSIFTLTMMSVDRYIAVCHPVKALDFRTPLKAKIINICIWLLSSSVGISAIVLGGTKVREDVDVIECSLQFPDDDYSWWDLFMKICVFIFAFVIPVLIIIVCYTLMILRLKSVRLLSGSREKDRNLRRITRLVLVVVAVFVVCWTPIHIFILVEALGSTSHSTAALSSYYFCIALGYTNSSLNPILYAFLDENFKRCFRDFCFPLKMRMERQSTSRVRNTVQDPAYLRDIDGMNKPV

As to `Cl.Cl.Cl.O[C@@H](COc1cccc2ncccc12)CN1CCN(C2c3ccccc3C3C(c4ccccc42)C3(Cl)Cl)CC1` (stereo partly drawn) [DCPQ, (2R)-anti-5-{3-[4-(10,11-dichloromethanodibenzosuber-5-yl)piperazin-1-yl]-2-hydroxypropoxy}quinoline trihydrochloride], the “dependence of regional brain radioactivity uptake on dose” value with P-gp [1] (DCPQ 0-16 mg/kg i.v. before [^11C]dLop, one monkey) is given as “increased almost linearly with dose of DCPQ”. Further, the “ratio of maximal brain radioactivity to that in the baseline experiment” value in the data set with P-gp [1] (DCPQ 8 mg/kg i.v. before [^11C]dLop, monkey) was “about five”. In addition, the “effect on uptake of radioactivity into pituitary” value in the data set with P-gp [1] (DCPQ 8 mg/kg or 16 mg/kg i.v. before [^11C]dLop, monkey) was “unaffected”. The “increase of regional radioactivity concentration relative to baseline” value in the data set with P-gp [1] (cerebellum, monkey) is reported as “thirteen-fold”; with P-gp [1] (frontal cortex, monkey) it was “seven-fold”. In addition, the “affinity to the P-gp” value in the data set on P-gp [2] is given as 5.3 nM. Besides, the “increase of brain radioactivity after [^11C]dLop” value with P-gp [3] is “more than 7 fold”. Further, the “increase in plasma exposure of [^11C]loperamide” value in [4] (DCPQ 8 mg/kg i.v. vs baseline, monkey) is 16%. Also, the “Plasma free fraction (fP), P-gp Inhibition” value was 5.7 ± 0.3 in data set [5] (inhibitor 1.0 mg/kg), 1.4 ± 0.5 in data set [5] (inhibitor 3.0 mg/kg) and 4.4 ± 1.4 in data set [5] (inhibitor 8.0 mg/kg). Also, the “increase of brain activity after [^11C]loperamide” value is “minimal effect” in the data set on P-gp [6] (inhibitor 1 mg/kg i.v. 30 min before radiotracer), around 2.5 fold in the data set on P-gp [6] (inhibitor 3 mg/kg i.v. 30 min before radiotracer) and around 3.5 fold with P-gp [6] (setting [15]). In the data set on P-gp [6], the “increase of peak radioactivity in brain after [^11C]loperamide” value is listed as 3.7 fold.

On to `CN(C)C(=O)C(CCN1CCC(O)(c2ccc(Cl)cc2)CC1)(c1ccccc1)c1ccccc1` [Loperamide, 4-(p-chlorophenyl)-4-hydroxy-N,N-dimethyl-α,α-diphenyl-1-piperidinebutyramide hydrochloride, reference compound], for which the “displacement of the radiotracer from brain” value with P-gp [7] was “Neither naloxone nor loperamide caused any apparent displacement”. This compound returned a Brain composition with P-gp [8] of 63%.

As for `COc1cc2c(cc1OC)CN(CCc1ccc(NC(=O)c3cc(OC)c(OC)cc3NC(=O)c3cnc4ccccc4c3)cc1)CC2` [Tariquidar], the “affinity to the P-gp” value with P-gp [2] is reported as 5.1 nM. In addition, the “Plasma free fraction (fP), Δ relative to baseline” value in data set [5] (inhibitor 8.0 mg/kg) is on record as “negligibly affected”. Further, the “brain activity after P-gp inhibition” value with P-gp [9] came out at 146 % standard uptake value. In addition, the “time over which parent plasma composition decreased to 50%” value in [10] (rhesus, in vivo) is 20 min. Also, the “increase of brain activity after [^11C]loperamide” value is reported as “equipotent with DCPQ” with P-gp [6] (setting [15]); around 3.5 fold with P-gp [6] (inhibitor 8 mg/kg i.v. 30 min before radiotracer, listed as tariquidar); “about 3.7 fold” in the data set on P-gp [11] (tariquidar 8 mg/kg i.v.). The “increase of peak radioactivity in brain after [^11C]loperamide” value in the data set with P-gp [6] turned out to be 3.7 fold.

Turning to `CN([11CH3])C(=O)C(CCN1CCC(O)(c2ccc(Cl)cc2)CC1)(c1ccccc1)c1ccccc1` [[^11C]loperamide, 4-(4-(4-chlorophenyl)-4-hydroxypiperidin-1-yl)-N,N-dimethyl-2,2-diphenylbutanamide], the “time at which parent radiotracer was 50% of total plasma activity” value in [4] (after DCPQ 8 mg/kg i.v.) is 20 min; in data set [4] (baseline) it was 17 min; in data set [4] (baseline, listed as [^11C]Loperamide), “about 20 min”. Besides, in data set [10] (baseline), the “time over which parent plasma composition decreased to 50%” value turned out to be 17 min. Further, the “maximal activity in cerebellum, knockout vs wild type mice (PET)” value with P-gp [12] (cerebellum) is recorded as 1.9 fold. Moreover, in the data set with P-gp [12] (forebrain), the “maximal activity in forebrain, knockout vs wild type mice (PET)” value is listed as 2.7 fold. Further, the “brain activity, knockout vs wild type mice (PET)” value with P-gp [12] (whole brains) is “about three-fold”. Also, the “brain uptake under baseline conditions” value with P-gp [6] (three monkeys, 120 min scan) is around 40 % SUV. For the same compound, the “share of brain radioactivity after [^11C]loperamide” value with P-gp [13] is around 50%. Further, the “brain activity, baseline” value in the data set on P-gp [11] (baseline) worked out at 40 % standard uptake value.

On to `CNC(=O)C(CCN1CCC(O)(c2ccc(Cl)cc2)CC1)(c1ccccc1)c1ccccc1` [dLop, 4-(4-(4-Chlorophenyl)-4-hydroxypiperidin-1-yl)-2,2-diphenyl-N-methyl-butanamide], for which the Ki came to 0.073 ± 0.007 µM at κ opiate receptor, 0.328 ± 0.022 µM on δ opiate receptor and 0.00056 ± 5e-05 µM at μ opiate receptor. In the data set on P-gp [1] (given 30 min after [^11C]dLop to DCPQ-treated monkey (naloxone 5 mg/kg i.v.; loperamide or dLop 1 mg/kg i.v.)), the “effect on washout of radioactivity from brain regions” value was “no discernible effect”. In addition, the Brain composition with P-gp [8] is recorded as 21%; at P-gp [14] (WT mice), 4.3%. The “concentration increase over control (KO vs WT)” value on P-gp [14] (brain) is listed as 59 fold.

For `CC(=O)N1CCN(c2ccc(OCC3COC(Cn4ccnc4)(c4ccc(Cl)cc4Cl)O3)cc2)CC1` (stereo not shown) [ketoconazole], in the data set with CYP3A4, the “decrease of radiometabolite dLop in plasma” value is given as around 70%, the “increase of [^11C]dLop concentration in plasma” value was around 240% and the “increase of [^11C]loperamide concentration in plasma” value is around 100%.

Consider `C=CCN1CC[C@]23c4c5ccc(O)c4O[C@H]2C(=O)CC[C@@]3(O)[C@H]1C5` [naloxone, reference compound], for which the “displacement of the radiotracer from brain” value in the data set on P-gp [7] is listed as “Neither naloxone nor loperamide caused any apparent displacement”.

The record behind these values is patent publication US7989630B2, “Radiotracers for imaging P-glycoprotein function” (National Institutes of Health Represented by the Secretary …, priority 2008, dated 2011).
